Patent US20230000774A1, “METHODS AND COMPOSITIONS PRODUCED THEREBY” (Albumedix Limited, priority 2019, published 2023)
Converted amounts (≈) assume the structure as drawn. Read-outs that look alike come from different tables or passages of the source.

Assays:
[1] = physchem; settings: organic solvent or mixture, thermodynamic from solid
Method: The solubility of nine poorly soluble APIs in ethanol was investigated; Acyclovir, Aripiprazole, Bifonazole, Etravirine, Ezetimibe, Glibenclamide. […] For each API, approximately 20 mg was weighed into a scintillation vial. 3 mL of ethanol was added to each vial. Samples were vortexed until completely dissolved. If after 2 mins the sample was not dissolved, a further 3 mL of ethanol was added, and the sample was vortexed again. After another 2 mins, if the sample was still not dissolved, the API in question was classed as insoluble.
To quickly assess the APIs applicability to this method, the solubility of each API in ethanol was tested.

[2] = Solubility of APIs in ethanol water mixtures; assay type: physicochemical; settings: ethanolic solution added to 50:50 EtOH:H2O
Method: APIs were dissolved in ethanol at the desired concentration (Tables 16 and 17). The required volume of this solution was added to a 50:50 solution of ethanol:HPLC grade water with stirring (Table 17).
To prepare the spray drying feed solution the API should preferably be soluble in 40:60 (v/v) ethanol/water mixtures. Any API that precipitated on addition of the ethanolic solution (from the previous section) to a 50:50 solution of EtOH:H2O was eliminated from the study.

[3] = Dissolution of curcumin in water and after spray drying with rHA; assay type: physicochemical; settings: unformulated
[4] = cited from earlier work; for Water Solubility: obtained from DrugBank, rimiducid value provided by Bellicum Pharmaceuticals (estimated); for Solubility in water (literature): unformulated API
[5] = obtained from DrugBank; total charge at pH 7.4; cited from earlier work
[6] = Solubility of APIs in D5W solution; assay type: physicochemical; settings: saline or isotonic, thermodynamic from solid
Method: The solution was sampled after centrifugation (13.5 k rpm for 5 minutes) and the solubility of the APIs was determined by HPLC analysis of the saturated solution.
Analysis was performed on an Agilent 1200 series HPLC employing a Waters, Xbridge Peptide BEH C18 column (150×4.6 mm i.d., 3.5 μm). […] Bifonazole was analysed using a 1 mL/min flow rate of 65:35 HPLC methanol:ammonium acetate (5 g/L, pH 2) with UV detection at 252 nm.

[7] = DMSO solubility testing; assay type: physicochemical
Method: 1 mL of DMSO was added to a scintillation vial containing approximately 20 mg of Ezetimibe. The sample readily dissolved with gentle mixing.
A solution preparation method that utilised an alternative solvent was investigated. The alternative solvent needed to be similar to ethanol in its ability to dissolve the APIs whilst being miscible with water. Dimethyl sulfoxide (DMSO) was chosen as a promising candidate. Ezetimibe was chosen as a suitable API owing to its favourable COSHH assessment combined with the knowledge of DMSO as a transport agent. The solubility of Ezetimibe in DSMO was assessed by dissolving approx. 20 mg of API in 1 mL of solvent. […] The next step was to assess the API solubility in a mixture of DMSO and water.

[8] = Drug solubility testing of AP1903 in ethanol and methanol; assay type: physicochemical
Method: Drug solubility testing was undertaken to ascertain the highest concentration of drug solution that could be used for the preparation of the feed solution. […] Both were tested and found to perform similarly, with ˜40 mg of AP1903 dissolving into 1 mLl of solvent.

[9] = D5W solution, unformulated API, saturated solution, read-out: Solubility in D5W solution

SMILES: O=C1CCc2ccc(OCCCCN3CCN(c4cccc(Cl)c4Cl)CC3)cc2N1 [Aripiprazole]
- solubility ([1]; Soluble (>[…]) in EtOH?): > 1200 µg/mL
- solubility ([1]; approximate concentration in ethanol at which completely solubilised): ~2200 µg/mL (≈ 4910 µM)
- Soluble in EtOH/H2O mixture [2]: No

SMILES: COc1cc(/C=C/C(=O)CC(=O)/C=C/c2ccc(O)c(OC)c2)ccc1O [Curcumin]
- Water Solubility [3]: poorly water soluble

SMILES: Nc1nc2c(ncn2COCCO)c(=O)[nH]1 [Acyclovir]
- solubility ([1]; Soluble (>[…]) in EtOH?): < 1200 µg/mL

SMILES: O=C1NC(=O)C(c2ccccc2)(c2ccccc2)N1 [Phenytoin]
- Water Solubility [4]: 71.1 µg/mL
- Solubility in water (literature) [4]: 71.1 µg/mL (≈ 282 µM)
- solubility ([1]; Soluble (>[…]) in EtOH?): > 1200 µg/mL
- Soluble in EtOH/H2O mixture [2]: Yes
- Physiological Charge [5]: 0
- solubility at 2 min [6, 9]: 14.1 µg/mL (≈ 55.9 µM)

SMILES: C#C[C@]1(O)CC[C@H]2[C@@H]3CCC4=Cc5oncc5C[C@]4(C)[C@H]3CC[C@@]21C [Danazol]
- Physiological Charge [5]: 0

SMILES: Cc1cccc(C)c1OCC(=O)N[C@@H](Cc1ccccc1)[C@@H](O)C[C@H](Cc1ccccc1)NC(=O)[C@H](C(C)C)N1CCCNC1=O [Lopinavir]
- Water Solubility [4]: 1.92 µg/mL
- Solubility in water (literature) [4]: 1.9 µg/mL (≈ 3.02 µM)
- solubility ([1]; Soluble (>[…]) in EtOH?): > 1200 µg/mL
- Soluble in EtOH/H2O mixture [2]: Yes
- solubility at 2 min [6]: 14.9 µg/mL (≈ 23.7 µM)

SMILES: O=C1[C@H](CC[C@H](O)c2ccc(F)cc2)[C@@H](c2ccc(O)cc2)N1c1ccc(F)cc1 [Ezetimibe]
- Water Solubility [4]: 8.46 µg/mL
- Solubility in water (literature) [4]: 8.5 µg/mL (≈ 20.8 µM)
- solubility ([1]; Soluble (>[…]) in EtOH?): > 1200 µg/mL
- solubility in a mixture of DMSO and water ([7]; addition to a 50:50 DMSO:water mixture): remained in solution
- solubility in DMSO ([7]; approx. 20 mg of API in 1 mL of DMSO): dissolved readily with gentle agitation
- Soluble in EtOH/H2O mixture [2]: Yes
- Physiological Charge [5]: 0
- solubility at 2 min [6, 9]: 3.4 µg/mL (≈ 8.3 µM)

SMILES: CC(C)c1nc(CN(C)C(=O)N[C@H](C(=O)N[C@@H](Cc2ccccc2)C[C@H](O)[C@H](Cc2ccccc2)NC(=O)OCc2cncs2)C(C)C)cs1 [Ritonavir]
- Physiological Charge [5]: 0

SMILES: C=CC[C@@H]1/C=C(\C)C[C@H](C)C[C@H](OC)[C@H]2O[C@@](O)(C(=O)C(=O)N3CCCC[C@H]3C(=O)O[C@H](/C(C)=C/[C@@H]3CC[C@@H](O)[C@H](OC)C3)[C@H](C)[C@@H](O)CC1=O)[C@H](C)C[C@@H]2OC [Tacrolimus]
- Water Solubility [4]: 4.02 µg/mL
- Physiological Charge [5]: 0

SMILES: CC[C@H](C(=O)N1CCCC[C@H]1C(=O)O[C@H](CCc1ccc(OC)c(OC)c1)c1cccc(OCC(=O)NCCNC(=O)COc2cccc([C@@H](CCc3ccc(OC)c(OC)c3)OC(=O)[C@@H]3CCCCN3C(=O)[C@@H](CC)c3cc(OC)c(OC)c(OC)c3)c2)c1)c1cc(OC)c(OC)c(OC)c1 [AP1903, 1,2-Ethanediylbis[imino(2-oxo-2,1-ethanediyl)oxy-3,1-phenylene(1R)-3-(3,4-dimethoxyphen-yl)-1,1-propanediyl] (2S,2'S)bis{1-[(2S)-2-(3,4,5-trimethoxyphenyl)butanoyl]-2-piperidine-carboxylate}]
- Water Solubility [4]: approximately 0.000001 mg/mL
- Water Solubility ([4]; listed as Rimiducid (AP1903)): 0.001 µg/mL
- water solubility (estimated) ([4]; provided by Bellicum Pharmaceuticals): 0.7 nM (≈ 0.988 ng/mL)
- Physiological Charge [5]: 0
- amount of AP1903 dissolving in ethanol ([8]; dissolving into 1 mL of ethanol): ~40 mg
- amount of AP1903 dissolving in methanol ([8]; dissolving into 1 mL of methanol): ~40 mg

SMILES: Cc1cc(C#N)cc(C)c1Oc1nc(Nc2ccc(C#N)cc2)nc(N)c1Br [Etravirine]
- Water Solubility [4]: 16.9 µg/mL
- solubility ([1]; Soluble (>[…]) in EtOH?): < 1200 µg/mL
- Physiological Charge [5]: 0

SMILES: COc1ccc(Cl)cc1C(=O)NCCc1ccc(S(=O)(=O)NC(=O)NC2CCCCC2)cc1 [Glibenclamide]
- solubility ([1]; Soluble (>[…]) in EtOH?): < 1200 µg/mL

SMILES: CO[C@H]1C[C@@H]2CC[C@@H](C)[C@@](O)(O2)C(=O)C(=O)N2CCCC[C@H]2C(=O)O[C@H]([C@H](C)C[C@@H]2CC[C@@H](O)[C@H](OC)C2)CC(=O)[C@H](C)/C=C(\C)[C@@H](O)[C@@H](OC)C(=O)[C@H](C)C[C@H](C)/C=C/C=C/C=C/1C [Rapamycin (sirolimus), Rapamycin]
- Water Solubility [4]: 1.73 µg/mL

SMILES: c1ccc(-c2ccc(C(c3ccccc3)n3ccnc3)cc2)cc1 (stereo not drawn) [Bifonazole]
- Water Solubility [4]: 2.45 µg/mL
- Solubility in water (literature) [4]: 2.5 µg/mL (≈ 8.05 µM)
- solubility ([1]; Soluble (>[…]) in EtOH?): > 1200 µg/mL
- Soluble in EtOH/H2O mixture [2]: Yes
- Physiological Charge [5]: 0
- solubility at 2 min [6]: 3.5 µg/mL (≈ 11.3 µM)
